Laboratory results from PubChem BioAssay (NCI).
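Cells were grown in 96-well plates and exposed to each compound for 48 hours at five concentrations; endpoints were interpolated linearly between bracketing concentrations, or set to the highest concentration if not reached. TGI: concentration producing complete growth inhibition.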

Assays:
Assay in all cases: NCI anticancer screen, dose series, 48 h
XF 498 CNS = system: XF 498 CNS
DLD-1 colon = system: DLD-1 colon
M19-MEL melanoma = system: M19-MEL melanoma
LXFL 529 NSCLC = system: LXFL 529 NSCLC
DMS 273 small cell lung = system: DMS 273 small cell lung
HOP-18 NSCLC = system: HOP-18 NSCLC
SNB-78 CNS = system: SNB-78 CNS

Question: What does the source list for `CN(C(=O)c1ccco1)C(=S)N1CCN(c2ccccc2)CC1`?
Answer: TGI (XF 498 CNS): > 100 µM; TGI (DLD-1 colon): > 100 µM; TGI (M19-MEL melanoma): > 100 µM; TGI (LXFL 529 NSCLC): > 100 µM; TGI (DMS 273 small cell lung): > 100 µM; TGI (HOP-18 NSCLC): > 100 µM

Question: Which results are given for `CC1(c2ccc[n+](Cc3ccccc3)c2)OCCO1`?
Answer: TGI (DLD-1 colon): > 100 µM; TGI (M19-MEL melanoma): > 100 µM; TGI (LXFL 529 NSCLC): > 100 µM; TGI (SNB-78 CNS): > 100 µM; TGI (DMS 273 small cell lung): > 100 µM; TGI (HOP-18 NSCLC): > 100 µM

Question: With `O=C1C(=O)c2ccccc2C(O)=C1CCCc1ccc(Oc2ccccc2)cc1` as the molecule, how does the TGI (XF 498 CNS) read?
Answer: Its TGI is 66.1 µM.

Question: And the TGI (DLD-1 colon)?
Answer: The TGI was greater than 100 µM.

Question: And the TGI (M19-MEL melanoma)?
Answer: Its TGI is 37.9 µM.

Question: And the TGI (LXFL 529 NSCLC)?
Answer: The TGI was greater than 100 µM.

Question: What about the TGI (SNB-78 CNS) of the same molecule?
Answer: Its TGI is 97.3 µM.

Question: What about the TGI (DMS 273 small cell lung) of the same molecule?
Answer: The TGI was 51.8 µM.

Question: For `N#CC(c1nc2ccccc2nc1Cl)S(=O)(=O)c1ccccc1` (stereo not given), which TGI (XF 498 CNS) is on record?
Answer: The TGI was greater than 100 µM.

Question: What about the TGI (DLD-1 colon) of the same molecule?
Answer: Its TGI is greater than 100 µM.

Question: What about the TGI (M19-MEL melanoma) of the same molecule?
Answer: The TGI was greater than 100 µM.

Question: What about the TGI (LXFL 529 NSCLC) of the same molecule?
Answer: Its TGI is greater than 100 µM.

Question: What about the TGI (SNB-78 CNS) of the same molecule?
Answer: Its TGI is 94.4 µM.

Question: And the TGI (DMS 273 small cell lung)?
Answer: Its TGI is greater than 100 µM.

Question: For `COc1ccc(C2=NN(c3ccccc3)C[N+](c3ccc(OC)cc3)=N2)cc1`, which TGI (XF 498 CNS) is on record?
Answer: Its TGI is 39.1 µM.

Question: And the TGI (DLD-1 colon)?
Answer: The TGI was greater than 100 µM.

Question: What about the TGI (M19-MEL melanoma) of the same molecule?
Answer: The TGI was greater than 100 µM.

Question: What about the TGI (LXFL 529 NSCLC) of the same molecule?
Answer: Its TGI is 45.4 µM.

Question: And the TGI (SNB-78 CNS)?
Answer: Its TGI is 80.5 µM.

Question: What about the TGI (DMS 273 small cell lung) of the same molecule?
Answer: The TGI was 66.1 µM.
